Earlier results in patent US6780852B2 (priority 1997, dated 2004).

For Ferric gluconate, the “transient hypotension and flushing, share of exposed patients” value is listed as 1%.
